The numbers were not newly measured in patent publication US11717481B2, “Reduction of flake-like aggregation in nanoparticulate active agent compositions” (Alkermes Pharma Ireland Limited, priority 2009, dated 2023), which cites them from elsewhere.

On to `Cc1cnc(NC(=O)C2=C(O)c3ccccc3S(=O)(=O)N2C)s1` [Meloxicam, 4-hydroxy-2-methyl-N-(5-methyl-2-thiazolyl)-2H-1,2-benzothiazine-3-carboxamide-1,1-dioxide], for which the solubility in water entry is given as “Practically insoluble”.
